Results on 15 compounds are retold here after US5225528A, “Cyclic hexapeptide oxytocin antagonists” (priority 1990, dated 1993).

Structures can show the parent of a compound that is named as a salt. Where two headings read alike, the source gives them in different places. Numbered stars: 1 amine (or outer) side, 2 acyl side, 3 side chain; on linkers, the order of the positions; unused ones are H or OH. Square brackets hold non-standard residues; d marks the D form. Peptide text beside a SMILES is read from it. * marks the point of attachment. dPiz(1,6-dehydro) = O=C(O)[C@H]1CCC=NN1; d1Nal = N[C@H](Cc1cccc2ccccc12)C(=O)O; d2Nal = N[C@H](Cc1ccc2ccccc2c1)C(=O)O; dNMeY = CN[C@H](Cc1ccc(O)cc1)C(=O)O; X6 = O=C([C@H]1CCCNN1[*:1])[*:2]; dNMeF = CN[C@H](Cc1ccccc1)C(=O)O; hPhe = N[C@@H](CCc1ccccc1)C(=O)O; Pip = O=C(O)[C@@H]1CCCCN1; dPip = O=C(O)[C@H]1CCCCN1; Orn = NCCC[C@H](N)C(=O)O; Boc = CC(C)(C)OC(=O)*

As a reminder, the IC50 is the midpoint of a concentration-inhibition curve.

For one experiment, the target named is T1, uterine OT receptors (Rattus norvegicus, UniProt P70536).
T1 construct: from tissue; host or cells: uterus of DES-treated rats, crude membranes
T1 sequence (P70536 1-388): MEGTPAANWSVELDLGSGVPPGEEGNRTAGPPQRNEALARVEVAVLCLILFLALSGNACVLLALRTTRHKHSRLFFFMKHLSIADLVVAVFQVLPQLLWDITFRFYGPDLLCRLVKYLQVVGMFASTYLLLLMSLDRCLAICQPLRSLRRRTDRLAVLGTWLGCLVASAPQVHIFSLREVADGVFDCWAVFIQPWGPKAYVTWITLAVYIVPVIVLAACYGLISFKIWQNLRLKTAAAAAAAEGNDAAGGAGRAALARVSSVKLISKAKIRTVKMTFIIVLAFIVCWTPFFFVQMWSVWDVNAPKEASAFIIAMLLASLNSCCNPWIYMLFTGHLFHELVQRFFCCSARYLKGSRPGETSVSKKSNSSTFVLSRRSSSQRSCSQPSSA
Description: [^3 H]OT binding to uterine OT receptors, crude membrane preparation of uteri from DES-treated rats. The note with it: for inhibition at 0.1 µM: 1 h, @ 100 (nM), read-out: [^3 H]OT: percent inhibition of radioligand at the given concentration. The protocol:
Competition studies were conducted at equilibrium (60 minutes; 22° C.) using 1 nM [^3 H]OT in the following assay buffer: 50 mM Tris-HCl, 5 mM MgCl2, and 0.1% BSA, pH 7.4.

In another experiment the target is T2, AVP-V1 sites (Rattus norvegicus, UniProt P30560).
T2 construct: crude membrane preparation of male rat liver (AVP-V1 sites); from tissue; host or cells: male rat liver, crude membranes
T2 sequence (P30560 whole entry): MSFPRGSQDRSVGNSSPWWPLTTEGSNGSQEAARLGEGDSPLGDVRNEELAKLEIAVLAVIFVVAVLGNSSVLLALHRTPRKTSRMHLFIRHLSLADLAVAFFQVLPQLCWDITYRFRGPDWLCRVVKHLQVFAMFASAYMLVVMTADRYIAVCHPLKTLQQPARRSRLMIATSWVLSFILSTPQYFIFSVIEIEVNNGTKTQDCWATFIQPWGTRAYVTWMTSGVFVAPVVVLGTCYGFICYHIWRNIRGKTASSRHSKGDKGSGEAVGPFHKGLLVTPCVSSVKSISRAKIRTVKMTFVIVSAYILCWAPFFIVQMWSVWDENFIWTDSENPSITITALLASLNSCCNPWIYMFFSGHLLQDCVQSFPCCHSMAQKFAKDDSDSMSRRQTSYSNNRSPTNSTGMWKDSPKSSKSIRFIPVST
Kind of experiment: [^3 H]AVP binding to crude membrane preparation of male rat liver (AVP-V1 sites). The protocol:
(§1) Nonspecific binding (5-10% of the total binding) was determined using 10 μM unlabeled AVP, and the binding reaction was terminated by filtration as described above for the [^3 H]OT binding assay.

The target of another experiment is T3, AVP-V2 sites (Rattus norvegicus, UniProt Q00788).
T3 construct: male rat liver (AVP-V1 sites) or kidney medulla (AVP-V2 sites); from tissue; host or cells: male rat kidney medulla, crude membranes
T3 sequence (Q00788 whole entry): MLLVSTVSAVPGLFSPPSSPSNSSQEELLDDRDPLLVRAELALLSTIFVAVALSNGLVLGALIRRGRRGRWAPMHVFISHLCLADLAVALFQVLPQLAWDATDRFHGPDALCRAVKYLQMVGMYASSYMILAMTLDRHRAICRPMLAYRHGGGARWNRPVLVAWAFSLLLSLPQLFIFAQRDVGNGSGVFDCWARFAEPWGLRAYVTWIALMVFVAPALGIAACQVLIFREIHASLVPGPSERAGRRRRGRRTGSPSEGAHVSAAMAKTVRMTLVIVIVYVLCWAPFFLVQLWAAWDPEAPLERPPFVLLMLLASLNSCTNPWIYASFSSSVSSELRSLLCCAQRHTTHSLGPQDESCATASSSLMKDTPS
Kind of experiment: [^3 H]AVP binding to crude membrane preparation of male rat kidney medulla (AVP-V2 sites). As for the experimental part: as §1

Where [1] appears, read: rat uterus membranes, 1 nM [^3 H]OT, read-out: Receptor Binding Results IC50 (nM) [^3 H]OT.
[2] abbreviates: read-out: Receptor Binding Results IC50 (nM) [^3 H]-AVP-V1.
Where [3] appears, read: read-out: Receptor Binding Results IC50 (nM) [^3 H]-AVP-V2.
The mark [4] stands for this setting: rat kidney medulla membranes, 2 nM [^3 H]AVP, read-out: Receptor Binding Results IC50 (nM) [^3 H]-AVP-V2.
Where [5] appears, read: Receptor Binding Results IC50 (nM) [^3 H]-AVP-V1.

For the compound `CC[C@H](C)[C@@H]1NC(=O)[C@@H](Cc2ccccc2)NC(=O)[C@@H]2CCCN2C(=O)[C@@H](Cc2ccccc2)N(C)C(=O)[C@H](CCCNC(=O)OC(C)(C)C)NC(=O)[C@H]2CCC=NN2C1=O` [Example 124, c-[D-Phenylalanyl-L-isoleucyl-D-Δ-piperazyl(N^δ -Boc)-L-orinthyl-N-methyl-D-δ-phenyl-alaninyl-L-prolyl]] (cyclo(I[dPiz(1,6-dehydro)][Orn](Boc)[dNMeF]P[dF])), the IC50 at uterine OT receptors (setting [1]) stood at 17.5 nM; on AVP-V1 sites (setting [2]) it was 2700 nM; at AVP-V2 sites (setting [3]), 3600 nM.
As for `CC[C@H](C)[C@@H]1NC(=O)[C@@H](Cc2ccccc2)NC(=O)[C@@H]2CCCN2C(=O)[C@@H](Cc2ccccc2)N(C)C(=O)[C@H](CCCN)NC(=O)[C@H]2CCC=NN2C1=O` [Example 125, c-[D-Phenylalanyl-L-isoleucyl-D-Δ-piperazyl-L-ornithyl-D-(N-methyl)phenylalanyl-L-prolyl] acetate salt] (cyclo(I[dPiz(1,6-dehydro)][Orn][dNMeF]P[dF])), the half-inhibitory concentration (IC50) was found to be 16 nM on uterine OT receptors (setting [1]), 810 nM at AVP-V1 sites (setting [2]) and 1600 nM on AVP-V2 sites (setting [4]).
As to `CC[C@H](C)[C@@H]1NC(=O)[C@@H](Cc2c[nH]c3ccccc23)NC(=O)[C@@H]2CCCN2C(=O)[C@@H](Cc2ccccc2)N(C)C(=O)[C@H](CCCNC(=O)OC(C)(C)C)NC(=O)[C@H]2CCC=NN2C1=O` [Example 126, c-[D-Tryptophanyl-L-isoleucyl-D-Δ-piperazyl (N^δ -Boc)-L-ornithyl-N-methyl-D-phenylalanyl-L-prolyl]] (cyclo(I[dPiz(1,6-dehydro)][Orn](Boc)[dNMeF]P[dW])), the concentration for half-maximal inhibition (IC50) was 15 nM at uterine OT receptors (setting [1]), above 1000 nM on AVP-V1 sites (setting [5]) and 1000 nM at AVP-V2 sites (Receptor Binding Results IC50 (nM) [^3 H]-AVP-V2).
Consider `CC[C@H](C)[C@@H]1NC(=O)[C@@H](Cc2c[nH]c3ccccc23)NC(=O)[C@@H]2CCCN2C(=O)[C@@H](Cc2ccccc2)N(C)C(=O)[C@H](CCCN)NC(=O)[C@H]2CCC=NN2C1=O` [Example 127, c-[D-Tryptophanyl-L-isoleucyl-D-Δ-piperazyl-L-ornithyl-N-methyl-D-phenylalanyl L-prolyl]] (cyclo(I[dPiz(1,6-dehydro)][Orn][dNMeF]P[dW])), for which the IC50 on uterine OT receptors (Receptor Binding Results IC50 (nM) [^3 H]OT) came out at 22 nM; at AVP-V1 sites (setting [2]) it was 1600 nM; at AVP-V2 sites (setting [4]), 330 nM.
Take `CC[C@H](C)[C@@H]1NC(=O)[C@@H](Cc2c[nH]c3ccccc23)NC(=O)[C@@H]2CCCN2C(=O)[C@@H](Cc2c[nH]cn2)NC(=O)[C@H](CCCNC(=O)OC(C)(C)C)NC(=O)[C@H]2CCCNN2C1=O` [Example 128, c-[D-Tryptophanyl-L-isoleucyl-D-piperazyl(N^δ -Boc)-L-or nithyl-D-histidyl-L-prolyl]] (cyclo(I[X6][Orn](Boc)[dH]P[dW])): the IC50 was 118 nM on uterine OT receptors (setting [1]), 10000 nM on AVP-V1 sites (setting [5]) and 10000 nM at AVP-V2 sites (setting [4]).
For the compound `CC[C@H](C)[C@@H]1NC(=O)[C@@H](Cc2c[nH]c3ccccc23)NC(=O)[C@@H]2CCCN2C(=O)[C@@H](Cc2c[nH]cn2)NC(=O)[C@H](CCCNC(=O)OC(C)(C)C)NC(=O)[C@H]2CCCCN2C1=O` [Example 129, c-[D-Tryptophanyl-L-isoleucyl-D-pipecolyl-(N^δ -Boc)-L-ornithyl-D-histidyl-L-prolyl] acetate salt] (cyclo(I[dPip][Orn](Boc)[dH]P[dW])), the IC50 at uterine OT receptors (setting [1]) was determined as 100 nM; on AVP-V1 sites (setting [5]), 10000 nM; on AVP-V2 sites (setting [4]), 10000 nM.
For `CC[C@H](C)[C@@H]1NC(=O)[C@@H](Cc2ccccc2)NC(=O)[C@@H]2CCCN2C(=O)[C@@H](Cc2ccccc2)N(C)C(=O)[C@H](CCCNC(=N)N)NC(=O)[C@H]2CCC=NN2C1=O` [Example 131, c-[D-phenylalanyl-L-isoleucyl-D-Δ-piperazyl-L-arginyl-D-(Nα-methyl)-phenylalanyl-L-prolyl]trifluoroacetate salt] (cyclo(I[dPiz(1,6-dehydro)]R[dNMeF]P[dF])), the IC50 at uterine OT receptors (setting [1]) was determined as 7.2 nM; on AVP-V1 sites (setting [2]), 400 nM; at AVP-V2 sites (setting [3]) it was 500 nM.
As for `CC[C@H](C)[C@@H]1NC(=O)[C@@H](Cc2c[nH]c3ccccc23)NC(=O)[C@@H]2CCCN2C(=O)[C@@H](Cc2ccccc2)N(C)C(=O)[C@H](CCCCN)NC(=O)[C@H]2CCCCN2C1=O` [Example 132, c-[D-Tryptophanyl-L-isoleucyl-D-pipecolyl-L-lysyl-D-(N-methyl)phenylalanyl-L-prolyl]] (cyclo(I[dPip]K[dNMeF]P[dW])), the IC50 is 65 nM at uterine OT receptors (setting [1]), above 10000 nM on AVP-V1 sites (setting [5]) and 10000 nM on AVP-V2 sites (setting [4]).
Taken in the same sequence, the figures for `CN1C(=O)[C@@H]2CCCCN2C(=O)[C@H]2CCCCN2C(=O)[C@H](CCc2ccccc2)NC(=O)[C@@H](Cc2c[nH]c3ccccc23)NC(=O)[C@@H]2CCCN2C(=O)[C@H]1Cc1ccccc1` [Example 133, c-[D-Tryptophanyl-L-homophenylalanyl-D-pipecolyl-L-pipecolyl-D-(N-methyl)phenylalanyl-prolyl]] (cyclo(P[dW][hPhe][dPip][Pip][dNMeF])) were 3600 nM, 10000 nM and 10000 nM.
For the compound `CN1C(=O)[C@@H]2CCCCN2C(=O)[C@H]2CCCCN2C(=O)[C@H](CCc2ccccc2)NC(=O)[C@@H](Cc2ccccc2)NC(=O)[C@@H]2CCCN2C(=O)[C@H]1Cc1ccccc1` [Example 135, c-[D-Phenylalanyl-L-homophenylalanyl-D-pipecolyl-L-pipecolyl-D-(N-methyl)phenylalanyl-L-prolyl]] (cyclo(P[dF][hPhe][dPip][Pip][dNMeF])), the figures for the half-maximal inhibitory concentration (IC50) on uterine OT receptors (setting [1]), on AVP-V1 sites (setting [2]) and at AVP-V2 sites (setting [3]) were 3400 nM, 8800 nM and 5000 nM, respectively.
As to `CN1C(=O)[C@@H]2CCCCN2C(=O)[C@H]2CCCCN2C(=O)[C@H](Cc2ccccc2)NC(=O)[C@@H](Cc2ccccc2)NC(=O)[C@@H]2CCCN2C(=O)[C@H]1Cc1ccccc1` [Example 136, c-[D-Phenylalanyl-L-phenylalanyl-D-pipecolyl-L-pipecolyl-D-(N-methyl)phenylalanyl-L-prolyl]] (cyclo(F[dPip][Pip][dNMeF]P[dF])), the IC50 at uterine OT receptors (setting [1]) is 410 nM; on AVP-V1 sites (setting [5]) it was above 10000 nM; at AVP-V2 sites (setting [3]) it was 8000 nM.
For the compound `CC[C@H](C)[C@@H]1NC(=O)[C@@H](Cc2c[nH]c3ccccc23)NC(=O)[C@@H]2CCCN2C(=O)[C@@H](Cc2ccc(O)cc2)N(C)C(=O)[C@@H]2CCCCN2C(=O)[C@H]2CCCCN2C1=O` [Example 137, c-[D-Tryptophanyl-L-isoleucyl-D-pipecolyl-L-pipecolyl-D-(N-methyl)tyrosyl-L-prolyl]] (cyclo(I[dPip][Pip][dNMeY]P[dW])), the IC50 on uterine OT receptors (setting [1]) came to 7.9 nM; on AVP-V1 sites (setting [2]) it was 9300 nM; on AVP-V2 sites (setting [3]), 245 nM.
As for `CC[C@H](C)[C@@H]1NC(=O)[C@@H](Cc2ccc3ccccc3c2)NC(=O)[C@@H]2CCCN2C(=O)[C@@H](Cc2ccccc2)N(C)C(=O)[C@H](CCCCNC(=O)OC(C)(C)C)NC(=O)[C@H]2CCCCN2C1=O` [Example 138, c-[D-2-Naphthylalanyl-L-isoleucyl-D-pipecolyl-L-(N-t-butyloxycarbonyl)lysyl-D-(N-methyl)phenylalanyl-L-prolyl]] (cyclo(I[dPip]K(Boc)[dNMeF]P[d2Nal])), the inhibition at 0.1 µM on uterine OT receptors was found to be 50%. Besides, the 50% inhibitory concentration (IC50) on AVP-V1 sites (setting [5]) came out at 10000 nM. In addition, on AVP-V2 sites (0.5 h, @ 1,000 (nM), read-out: [^3 H]-AVP-V2: percent inhibition of radioligand at the given concentration), the inhibition at 1 µM was determined as 42%.
For the compound `CC[C@H](C)[C@@H]1NC(=O)[C@@H](Cc2cccc3ccccc23)NC(=O)[C@@H]2CCCN2C(=O)[C@@H](Cc2ccccc2)N(C)C(=O)[C@H](CCCCNC(=O)OC(C)(C)C)NC(=O)[C@H]2CCCCN2C1=O` [Example 139, C-[D-1-Napthylalanyl-L-isoleucyl-D-pipecolyl-L-(N-t-butyloxycarbonyl)lysyl-D-(N-methyl)phenylalanyl-L-prolyl]] (cyclo(I[dPip]K(Boc)[dNMeF]P[d1Nal])), at uterine OT receptors, the inhibition at 0.1 µM turned out to be 24%. Also, the 50% inhibitory concentration (IC50) on AVP-V1 sites (setting [2]) and at AVP-V2 sites (setting [3]) was 8000 nM in each case.
On to `CC[C@H](C)[C@@H]1NC(=O)[C@@H](Cc2ccc3ccccc3c2)NC(=O)[C@@H]2CCCN2C(=O)[C@@H](Cc2ccccc2)N(C)C(=O)[C@H](CCCCN)NC(=O)[C@H]2CCCCN2C1=O` [Example 141, C-[D-2-Napthylalanyl-L-isoleucyl-D-pipecolyl-L-lysyl-D-(N-methyl)phenylalanyl-L-prolyl]] (cyclo([d2Nal]I[dPip]K[dNMeF]P)), for which, on uterine OT receptors (setting [1]), the IC50 was found to be 45 nM. The “[^3 H]-AVP-V1: percent inhibition of radioligand at the given concentration” value at AVP-V1 sites was 48%. For the same compound, at AVP-V2 sites (@ 1,000 (nM)), the “[^3 H]-AVP-V2: percent inhibition of radioligand at the given concentration” value came out at 78%.
